Reference: paper PMC7334220, “Diamond Blackfan anemia is mediated by hyperactive Nemo-like kinase” (Nature Communications, 2020)

Columns and labels:
p38 = assay: DiscoveRX kinase profile analysis of SD208, p38; assay type: biochemical; details: 10 µM; kinase profiling; Supplementary Fig. 2a
NLK = target: T1, NLK (Homo sapiens, UniProt Q9UBE8); assay: DiscoveRX kinase profile analysis of SD208, NLK; assay type: biochemical; details: kinase profiling, Supplementary Fig. 2a
T1 construct: NLK, p38, or ALK5 for in vitro kinase assays were immunopurified from Kp53A1 cells; endogenous in cells; immunoprecipitated with anti-NLK (Abcam AB97642)
T1 sequence (Q9UBE8 1-527): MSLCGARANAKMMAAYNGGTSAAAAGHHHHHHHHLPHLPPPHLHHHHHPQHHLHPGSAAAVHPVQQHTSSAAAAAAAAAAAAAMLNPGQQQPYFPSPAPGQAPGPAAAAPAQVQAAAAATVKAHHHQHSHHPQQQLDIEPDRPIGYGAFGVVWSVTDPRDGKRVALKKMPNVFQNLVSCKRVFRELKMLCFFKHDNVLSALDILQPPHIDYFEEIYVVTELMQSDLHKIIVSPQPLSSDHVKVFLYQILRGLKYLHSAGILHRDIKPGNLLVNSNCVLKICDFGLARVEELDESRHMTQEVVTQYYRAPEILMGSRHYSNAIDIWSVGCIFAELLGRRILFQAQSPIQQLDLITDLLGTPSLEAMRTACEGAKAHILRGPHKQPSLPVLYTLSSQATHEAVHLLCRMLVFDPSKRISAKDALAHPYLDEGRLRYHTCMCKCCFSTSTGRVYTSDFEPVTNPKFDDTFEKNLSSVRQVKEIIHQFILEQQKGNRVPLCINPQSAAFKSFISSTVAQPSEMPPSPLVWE
Protocol: Supplementary Fig. 2. SD208 and NLK siRNA are specific. (a) The top 22 hits from DiscoveRX kinase profile analysis of SD208. (b) Human cord blood CD34+ progenitors were transduced shRNA against luciferase (shLuc) or RPS19 (shRPS19) and differentiated in erythroid media in the presence […]
days. Cells were counted and assessed for cell surface expression of CD235. Effective inhibition of p38 activity was assessed by lysis of treated controls and Western blot analysis of pp38. (c) Cord blood CD34+ progenitors were transduced with shRNA against RPS19 and either non-targeting (NT) or 1 of 3 different shRNA sequences against NLK. After sorting, cells were differentiated for 12 days. Lysates were subjected to qRT-PCR to assess NLK expression (Upper) and the number of CD235+ erythroblasts was determined by flow cytometry and is expressed relative to erythroid expansion of control cells (Lower). (d) Kp53A1 cells were untransfected (Unt), transfected with a non-targeting sequence (NT), or siRNA against NLK (siNLK). Phosphorylation status of p38, JNK and ERK was determined by treating transfected Kp53A1 cells EPO prior to Western blot analysis for pp38, pJNK and pERK. Transfected cells were cultured for 48 hours prior to lysis. Lysates were subjected to SDS-PAGE and protein expression of the listed proteins was determined by Western blot analysis. […]

[1] = tested on: ribosome-competent cord blood CD34+ HSPCs (shLuc); assay: In vitro differentiation of cord blood CD34+ HSPCs transduced with control shRNA (luciferase); assay type: cell-based, human
Protocol: Lin-Kit^+ fetal liver cells were obtained from mouse embryos expressing tet-on shRNA against RPS19, at day E14.5-15.5. Cells were plated at 2000 cell per well in 96-well plates in the presence or absence of doxycycline. Relative amounts of live cells were quantified by luciferase-based Cell titer-Glo® assay. b TGFβR1 inhibitors were assessed for their ability to increase cell expansion in RPS19-insuffiency. As a control, vehicle alone (no doxycycline) is represented at the far left while all other samples were treated with doxycycline to induce RPS19-insufficiency. c Kit^+ erythroid progenitors were grown in the absence of doxycycline and in the presence of 10 µM of indicated compound. In addition, cells were treated with 5 ng/ml of TGFβ1 for 5 days before being subjected to Cell titer-Glo® assay. d Differentiating cord blood CD34^+ progenitors were transduced with shRNA against luciferase or RPS19 and treated with inhibitors at working concentrations for TGFβ inhibition every three days. […] Cells were counted and CD235^+ erythroid (i and iii) and CD11b^+ myeloid cell (ii and iv) percentages were determined by flow cytometry. The number of erythroid or myeloid cells is expressed as a percentage of the number of that lineage with no cytokine or drug treatment. […]
Fig. 8 NLK inhibition increases expansion of erythroid progenitors from human and murine models of DBA. a Human cord blood CD34^+ progenitors were transduced with lentivirus co-expressing GFP with shRNA against luciferase (shLuc), RPS19 (shRPS19), or RPL11 (shRPL11). […] Cells were counted and assessed for cell surface expression of CD235. b Lin-Kit^+ hematopoietic progenitors were obtained from three mouse embryos expressing tetracycline-inducible shRNA against RPS19 at day E14.5 or three untreated mice, and thee mature RPL11^+/+ or three mature RPL11^+/lox mice treated with tamoxifen for eight weeks. […] Values were expressed as a percentage relative to untreated controls. c, d Intracellular phosphorylation of NLK at Thr298 was determined by capillary electrophoresis using the Peggy Sue™ Automated Western blotting platform. […]

SMILES: Fc1ccc(Cl)cc1-c1nc(Nc2ccncc2)c2nccnc2n1 [SD208]
- inhibition of p38 kinase activity (p38): 99.6%
- inhibition at 10 µM (NLK): 96.8%
- activity at 5 µM ([1]; Homo sapiens, 360 h, read-out: erythroid expansion of HSPCs transduced with control shRNA, % of control): ~105%
- restoration of erythroid and myeloid expansion of TGFβ-treated cells ([1]; ribosome-competent cells, 5 ng/ml TGFβ1, 5 µM compound, 15 days, Fig. 1e): restored
